Where two headings read alike, the source gives them in different places.
Legend:
Assay type in all cases: cell-based
[1] = system: S. aureus UBMS 88-5 (tetM); assay: MIC, agar dilution; details: S. aureus UBMS 88-5 TetM; Table IA; unit assumed
[2] = system: S. aureus UBMS 88-4 (Sensitive); assay: MIC, agar dilution; details: S. aureus UBMS 88-4; Table IA; unit assumed
[3] = system: S. aureus UBMS 90-1 (tetM); assay: MIC, agar dilution; details: S. aureus UBMS 90-1 TetM; Table IA; unit assumed
[4] = system: S. aureus UBMS 90-2 (tetM); assay: MIC, agar dilution; details: S. aureus UBMS 90-2 TetM; Table IA; unit assumed
[5] = system: S. aureus UBMS 90-3 (Sensitive); assay: MIC, agar dilution; details: S. aureus UBMS 90-3; Table IA; unit assumed
[6] = system: S. aureus UBMS 88-7 (tetK); assay: MIC, agar dilution; details: S. aureus UBMS 88-7 TetK; Table IA; unit assumed
[7] = system: S. aureus IVES 2943 (meth. resistant); assay: MIC, agar dilution; details: S. aureus IVES 2943; Table IA; unit assumed
[8] = system: S. aureus IVES 1983 (meth. resistant); assay: MIC, agar dilution; details: S. aureus IVES 1983; Table IA; unit assumed
[9] = system: S. aureus ATCC 29213 (Sensitive); assay: MIC, agar dilution; details: S. aureus ATCC 29213; Table IA; unit assumed
[10] = system: S. aureus Smith (Sensitive); assay: MIC, agar dilution; details: S. aureus SMITH (MP); Table IA; unit assumed
[11] = system: S. haemolyticus AVAH 88-3; assay: MIC, agar dilution; details: S. hemolyticus AVHAH 88-3; Table IA; unit assumed
E. faecalis 12201 = assay: MIC, agar dilution; details: Enterococcus 12201; Table IA; unit assumed
E. faecalis ATCC 29212 = assay: MIC, agar dilution; details: E. faecalis ATCC 29212; Table IA; unit assumed
E. coli UBMS 88-1 (tetB) = assay: MIC, agar dilution; details: E. coli UBMS 88-1 TetB; Table IA; unit assumed
E. coli UBMS 89-1 (tetM) = assay: MIC, agar dilution; details: E. coli UBMS 89-1 TetM; Table IA; unit assumed
[12] = system: E. coli UBMS 89-2 (Sensitive); assay: MIC, agar dilution; details: E. coli UBMS 89-2 Tet Sens.; Table IA; unit assumed
E. coli ATCC 25922 = assay: MIC, agar dilution; details: E. coli ATCC 25922; Table IA; unit assumed
E. coli UBMS 90-4 (tetM) = assay: MIC, agar dilution; details: E. coli UBMS 90-4 TetM; Table IA; unit assumed
E. coli MC4100 Tet sens. = assay: MIC, agar dilution (Table IA); details: unit assumed
E. coli MC4100 TetB = assay: MIC, agar dilution (Table IA); details: unit assumed
E. coli PRP1 TetA = assay: MIC, agar dilution (Table IA); details: unit assumed
E. coli J3272 TetC = assay: MIC, agar dilution (Table IA); details: unit assumed
E. coli J2175 = assay: MIC, agar dilution (Table IA); details: unit assumed
E. coli BAJ9003 = assay: MIC, agar dilution (Table IA)
E. coli UBMS 90-5 = assay: MIC, agar dilution (Table IA); details: unit assumed
E. coli #311 (MP) = assay: MIC, agar dilution (Table IA); details: unit assumed
E. coli J3272 TetD = assay: MIC, agar dilution (Table IA); details: unit assumed
S. mariescens FDOR 8733 = assay: MIC, agar dilution (Table IA); details: unit assumed
[13] = system: X. maltophilia NEMC 87210; assay: MIC, agar dilution (Table IA); details: unit assumed
[14] = system: Ps. acruginosa ATCC 27853; assay: MIC, agar dilution (Table IA); details: unit assumed
S. aureus NEMC 8769/89-4 = assay: MIC, agar dilution (Table IA); details: unit assumed
S. aureus ROSE (MP) = assay: MIC, agar dilution (Table IA); details: unit assumed

Structure (SMILES)	Antibacterial activity (MIC) [1] [µg/mL]	Antibacterial activity (MIC) [2] [µg/mL]	Antibacterial activity (MIC) [3] [µg/mL]	Antibacterial activity (MIC) [4] [µg/mL]	Antibacterial activity (MIC) [5] [µg/mL]	Antibacterial activity (MIC) [6] [µg/mL]	Antibacterial activity (MIC) [7] [µg/mL]	Antibacterial activity (MIC) [8] [µg/mL]	Antibacterial activity (MIC) [9] [µg/mL]	Antibacterial activity (MIC) [10] [µg/mL]	Antibacterial activity (MIC) [11] [µg/mL]	Antibacterial activity (MIC) (E. faecalis 12201) [µg/mL]	Antibacterial activity (MIC) (E. faecalis ATCC 29212) [µg/mL]	Antibacterial activity (MIC) (E. coli UBMS 88-1 (tetB)) [µg/mL]	Antibacterial activity (MIC) (E. coli UBMS 89-1 (tetM)) [µg/mL]	Antibacterial activity (MIC) [12] [µg/mL]	Antibacterial activity (MIC) (E. coli ATCC 25922) [µg/mL]	Antibacterial activity (MIC) (E. coli UBMS 90-4 (tetM)) [µg/mL]	Antibacterial activity (MIC) (E. coli MC4100 Tet sens.) [µg/mL]	Antibacterial activity (MIC) (E. coli MC4100 TetB) [µg/mL]	also measured
CN(C)CC(=O)Nc1cc(N(C)C)c2c(c1O)C(=O)C1=C(O)[C@]3(O)C(=O)C(C(=O)NCN4CCCC4)=C(O)[C@@H](N(C)C)C3CC1C2 (stereo partly drawn) [FFF, [4S-(4alpha,12aalpha)]-4,7-Bis(dimethylamino)-9-[[(dimethylamino)acetyl]amino]-1,4,4a,5,5a,6,11,12a-octahydro-3,10,12,12a-tetrahydroxy-1,11-dioxo-N-(1-pyrrolidinylmethyl)-2-naphthacenecarboxamide]	0.12	0.12	0.12	0.12	0.12	1	2	2	0.12	0.12	0.25	0.12	0.06	0.25	0.12	0.25	0.12	0.12	0.06	0.25	Antibacterial activity (MIC) (E. coli PRP1 TetA): 2 µg/mL; Antibacterial activity (MIC) (E. coli J3272 TetC): 1 µg/mL; Antibacterial activity (MIC) (E. coli J2175): 0.25 µg/mL; Antibacterial activity (MIC) (E. coli BAJ9003): ≧0.015; Antibacterial activity (MIC) (E. coli UBMS 90-5): 0.25 µg/mL; Antibacterial activity (MIC) (E. coli #311 (MP)): 0.25 µg/mL; Antibacterial activity (MIC) (E. coli J3272 TetD): 0.12 µg/mL; Antibacterial activity (MIC) (S. mariescens FDOR 8733): 4 µg/mL; Antibacterial activity (MIC) [13]: 0.25 µg/mL; Antibacterial activity (MIC) [14]: 8 µg/mL; Antibacterial activity (MIC) (S. aureus NEMC 8769/89-4): 0.25 µg/mL; Antibacterial activity (MIC) (S. aureus ROSE (MP)): 2 µg/mL
CN(C)CC(=O)Nc1cc(N(C)C)c2c(c1O)C(=O)C1=C(O)[C@]3(O)C(=O)C(C(=O)NCN4CCOCC4)=C(O)[C@@H](N(C)C)C3CC1C2 (some centres unmarked) [GGG]	0.12	0.12	0.25	0.12	0.12	1	2	2	0.25	0.12	0.5	0.12	0.06	0.25	0.12	0.25	0.12	0.25	0.06	0.25	Antibacterial activity (MIC) (E. coli PRP1 TetA): 1 µg/mL; Antibacterial activity (MIC) (E. coli J3272 TetC): 1 µg/mL; Antibacterial activity (MIC) (E. coli J2175): 0.25 µg/mL; Antibacterial activity (MIC) (E. coli BAJ9003; unit assumed): 0.03 µg/mL; Antibacterial activity (MIC) (E. coli UBMS 90-5): 0.25 µg/mL; Antibacterial activity (MIC) (E. coli #311 (MP)): 0.25 µg/mL; Antibacterial activity (MIC) (E. coli J3272 TetD): 0.12 µg/mL; Antibacterial activity (MIC) (S. mariescens FDOR 8733): 4 µg/mL; Antibacterial activity (MIC) [13]: 0.5 µg/mL; Antibacterial activity (MIC) [14]: 8 µg/mL; Antibacterial activity (MIC) (S. aureus NEMC 8769/89-4): 0.25 µg/mL; Antibacterial activity (MIC) (S. aureus ROSE (MP)): 2 µg/mL
CN(C)CC(=O)Nc1cc(N(C)C)c2c(c1O)C(=O)C1=C(O)[C@]3(O)C(=O)C(C(=O)NCN4CCCCC4)=C(O)[C@@H](N(C)C)C3CC1C2 (stereo partly drawn) [HHH, [4S-(4alpha,12aalpha)]-4,7-Bis(dimethylamino)-9-([(dimethylamino)acetyl]amino]-1,4,4a,5,5a,6,11,12a-octahydro-3,10,12,12a-tetrahydroxy-1,11-dioxo-N-(1-piperadinylmethyl)-2-naphthacenecarboxamide]	0.25	0.25	0.25	0.12	0.12	0.5	2	2	0.25	0.12	0.5	0.12	0.06	0.25	0.25	0.25	0.25	0.25	0.12	0.25	Antibacterial activity (MIC) (E. coli PRP1 TetA): 2 µg/mL; Antibacterial activity (MIC) (E. coli J3272 TetC): 0.5 µg/mL; Antibacterial activity (MIC) (E. coli J2175): 0.25 µg/mL; Antibacterial activity (MIC) (E. coli BAJ9003; unit assumed): 0.03 µg/mL; Antibacterial activity (MIC) (E. coli UBMS 90-5): 0.25 µg/mL; Antibacterial activity (MIC) (E. coli #311 (MP)): 0.25 µg/mL; Antibacterial activity (MIC) (E. coli J3272 TetD): 0.12 µg/mL; Antibacterial activity (MIC) (S. mariescens FDOR 8733): 4 µg/mL; Antibacterial activity (MIC) [13]: 0.5 µg/mL; Antibacterial activity (MIC) [14]: 8 µg/mL; Antibacterial activity (MIC) (S. aureus NEMC 8769/89-4): 0.25 µg/mL; Antibacterial activity (MIC) (S. aureus ROSE (MP)): 2 µg/mL
CN(C)CCCC(=O)Nc1cc(N(C)C)c2c(c1O)C(=O)C1=C(O)[C@]3(O)C(=O)C(C(N)=O)=C(O)[C@@H](N(C)C)C3CC1C2.Cl.Cl (stereo partly drawn) [ZZ, [4S-(4alpha,12aalpha)]-4,7-Bis(dimethylamino)-9-[[4-(dimethylamino)-1-oxobutyl]amino]-1,4,4a,5,5a,6,11,12a-octahydro-3,10,12,12a-tetrahydroxy-1,11-dioxo-2-naphthacenecarboxamide dihydrochloride]	8	2	8	4	2	16	> 32	> 32	2	2	8	8	4	> 32	32	16	8	16	2	> 32	Antibacterial activity (MIC) (E. coli PRP1 TetA): > 32 µg/mL; Antibacterial activity (MIC) (E. coli J3272 TetC): 32 µg/mL; Antibacterial activity (MIC) (E. coli J2175): 16 µg/mL; Antibacterial activity (MIC) (E. coli BAJ9003; unit assumed): 1 µg/mL; Antibacterial activity (MIC) (E. coli UBMS 90-5): 16 µg/mL; Antibacterial activity (MIC) (E. coli #311 (MP)): 16 µg/mL; Antibacterial activity (MIC) (E. coli J3272 TetD): 4 µg/mL; Antibacterial activity (MIC) (S. mariescens FDOR 8733): > 32 µg/mL; Antibacterial activity (MIC) [13]: 32 µg/mL; Antibacterial activity (MIC) [14]: > 32 µg/mL; Antibacterial activity (MIC) (S. aureus NEMC 8769/89-4): 1 µg/mL; Antibacterial activity (MIC) (S. aureus ROSE (MP)): > 32 µg/mL
